Results taken from ChEMBL document CHEMBL1821549, “Phylogeny-guided isolation of ethyl tumonoate A from the marine cyanobacterium cf. Oscillatoria margaritifera” (J Nat Prod, 2011).
Calls of active or inactive are those of the source. The rule behind the calls is not given here.

What was measured:
Mus musculus = species on record: Mus musculus; assay: Inhibition of calcium (Ca2+) oscillations in Swiss-Webster mouse neocortical neurons at 10 uM by Fluo-3 dye based fluorimetric assay; format: functional
RAW264.7 [1] = assay: Cytotoxicity against mouse RAW264.7 cells after 48 hrs by MTT assay; format: cell-based; conditions: raw264.7, 48 h
RAW264.7 [2] = assay: Antiinflammatory activity in mouse RAW264.7 cells assessed as inhibition of LPS-induced nitric oxide production incubated for 24 hrs by Griess method; format: functional, cell-based; conditions: RAW264.7, 24 h
NCI-H460 = assay: Cytotoxicity against human H460 cells at =>10 ug/mL; format: cell-based

Row | Compound | inhibition (Mus musculus) | Activity (RAW264.7 [1]) | IC50 (RAW264.7 [2]) [µM] | Activity (NCI-H460)
1 | CCCCCCCC[C@H](C)C(=O)N1CCC[C@H]1C(=O)O[C@@H](C(=O)O[C@@H](C)C(=O)O)[C@@H](C)CC | inactive | – | – | –
2 | CCCCCCC/C=C(\C)[C@@H](O)[C@@H](C)C(=O)N1CCC[C@H]1C(=O)O | Active | – | – | –
3 | CCCCCCCCC(C)[C@H](OC(C)=O)[C@H](C)C(=O)N1CCC[C@H]1C(=O)O (some centres not stated) | Active | – | – | –
4 | CCCCCCC/C=C(\C)[C@@H](O)[C@@H](C)C(=O)N1CCC[C@H]1C(=O)OCC [ETHYL TUMONOATE A] | Active | Non-toxic | 9.8 | Non-toxic
